The values that follow come from ChEMBL document CHEMBL2417420, “Autotaxin inhibition: development and application of computational tools to identify site-selective lead compounds” (Bioorg Med Chem, 2013).

Broadly, the inhibition is the share of the control response that was lost under treatment.

This assay has as its target Autotaxin (Homo sapiens, UniProt Q13822). The assay can be described thus: Inhibition of C-terminal FLAG-tagged human recombinant autotaxin using synthetic substrate FS-3 at 10 uM measured every 2 mins by FRET assay relative to control.
On to `O=C(O)[C@@H](Cc1ccccc1)N1C(=O)/C(=C/c2cccc(Oc3ccc(Cl)cc3)c2)SC1=S`, for which the inhibition worked out at 10%.
`CC1CCC(OCC(=O)N2CCN(c3ncccc3C(=O)N3CCCC3C(N)=O)CC2)C(C(C)C)C1` (centres undefined): the inhibition was found to be 20%.
For the compound `COc1cc(CCNC(=O)c2ccc3c(c2)nc(-c2ccccc2)n3CCc2ccc(OC)c(OC)c2)cc(OC)c1`, the inhibition was 20%.
As to `Cc1ccc(-c2ccc(-c3nnc(CCCC(=O)NC(CO)CO)o3)cc2)cc1`, the inhibition came out at 10%.
In the case of `O=C1Nc2ccc([N+](=O)[O-])cc2/C1=N/NC(=O)c1ccc(C(=O)N/N=C2\C(=O)Nc3ccc([N+](=O)[O-])cc32)cc1`, the inhibition is 10%.
Under `Cc1ccc2[nH]c3nc(SCC(=O)NCc4ccc5c(c4)OCO5)nnc3c2c1` stands 10%; under `O=C(COc1cc(Cl)c(Cl)cc1Cl)Nc1ccc(CNC(=O)c2cnc3cc(C(F)(F)F)ccc3c2O)cc1`, 10%; under `COc1cccc(/C=C2/S/C(=N/c3ccccc3)N(Cc3ccccc3)C2=O)c1O`, 0%.
With `COc1cc(C2CC(=O)NC(SCC(=O)Nc3ccccc3C)=C2C#N)cc(Br)c1O` (centres undefined) the figure was 30%; with `CCCOC(=O)c1ccc(/N=C/c2cccc(OC)c2O)cc1`, 10%.
With `CC(CC(=O)N1CCCN(c2ccc(C(=O)NC(C(N)=O)C(C)O)cn2)CC1)c1ccccc1` (centres undefined) the figure was 0%; with `COc1cccc(C2CC(=O)NC(SCC(=O)Nc3ccccc3C)=C2C#N)c1OC` (centres undefined), 30%; with `COc1cccc(-c2ccc(C(=O)N(CCN)Cc3ccc(NC(C)=O)cc3)cn2)c1`, 20%.
Turning to `CCOC(=O)c1sc(NC(=O)c2ccc(Oc3ccc(C(=O)Nc4sc(C(=O)OCC)c(C)c4C(=O)OCC)cc3)cc2)c(C(=O)OCC)c1C`, the inhibition turned out to be 10%.
With `CC(=O)N1CCN(C(=O)c2ccc3nc(C)c(N(C)C(=O)CCc4ccccc4)n3c2)CC1` the figure was 0%.
Regarding `COc1ccc(-c2cc(C(=O)NC(C)(C)C(=O)NCCC3CCCN3C)c3ccccc3n2)cc1` (centres undefined), the inhibition was 10%.
Take `CC(=O)N1CCc2cc(NC(=O)c3ccc4nc(C)c(N(C)C(=O)CCc5ccccc5)n4c3)ccc21`: the inhibition was 20%.
Under `COc1ccccc1/C=C1\SC(=O)N(CCC(=O)N2c3ccccc3Sc3ccccc32)C1=O` stands 20%; under `O=C(O)c1cc(-c2ccc(/C=C3/SC(=S)N(CCc4ccccc4)C3=O)o2)ccc1Cl`, 20%; under `COc1cc(C2CC(=O)NC(SCC(=O)Nc3c(C)cc(C)cc3C)=C2C#N)ccc1OCc1ccccc1` (centres undefined), 30%.
Take `COc1cccc(CCNC(=O)c2ccc3c(c2)nc(-c2cc(OC)c(OC)c(OC)c2)n3CCc2ccc(OC)c(OC)c2)c1`: the inhibition is 30%.
Take `Cc1cc(C)cc(CC(=O)N2CCN(c3ncccc3C(=O)NC(C(N)=O)C(C)O)CC2)c1` (centres undefined): the inhibition came to 0%.
On to `CC1CCC(C(C)C)C(OCc2nc3cc(C(=O)NCCOCCO)ccc3n2Cc2ccco2)C1` (centres undefined), for which the inhibition is 10%.
For `O=[N+]([O-])c1cc(/C=N/c2ccc3nc(SCc4ccc(Br)cc4)sc3c2)ccc1O`, the inhibition was 0%.
With `CCCCCCOc1ccc(/C=N/c2ccc(C)cc2)cc1` the figure was 0%.
Under `COc1cc(CCNC(=O)c2ccc3c(c2)nc(-c2cccc(C)c2)n3CCc2ccc(OC)c(OC)c2)cc(OC)c1` stands 30%; under `O=C1/C(=C\c2cc(Cc3ccccc3)ccc2O)SC(=S)N1Cc1ccccc1`, 10%; under `COc1ccc(CCn2c(COc3ccccc3)nc3cc(C(=O)NCC(O)CO)ccc32)cc1OC` (centres undefined), 10%.
With `O=C(N/N=C/c1cc(Br)c(O)c(O)c1Br)/C(=C\c1ccc([N+](=O)[O-])cc1)NC(=O)c1ccccc1` the figure was 20%; with `COc1cc(C2OCC3(CCCC4(COC(c5ccc(O)c(OC)c5)OC4)C3=O)CO2)ccc1O` (centres undefined), 30%.
`CC1CN(c2ccc(C(=O)NC(Cc3ccc(O)cc3)C(N)=O)cn2)CCN1C(=O)C(N)Cc1ccccc1` (centres undefined): the inhibition was 10%.
As for `Cc1[nH]c2ccccc2c1CC(=O)N1CCN(C(=O)c2ccccc2C(=O)c2ccc(Cl)cc2)CC1`, the inhibition is 30%.
With `COc1ccc(-c2cc(C(=O)N/N=C/c3cc(OC)c(O)c(OC)c3)[nH]n2)cc1OC` the figure was 10%.
With `C=CCOC(=O)C1=C(C)NC(SCC(=O)Nc2cccc(Cl)c2)=C(C#N)C1c1ccc(O)c(OC)c1` (centres undefined) the figure was 30%; with `COc1cccc(CC(=O)NCCNc2nc3cc4c(cc3cc2C#N)OCO4)c1`, 20%.
With `CCCCCOc1ccc(/C=N/c2ccc(/N=C/c3ccc(OCCCCC)cc3)c(Cl)c2)cc1` the figure was 0%.
Regarding `COc1ccc(CNC(=O)N2CC(O)C(N3CCN(c4ccccc4F)CC3)C2)cc1` (centres undefined), the inhibition amounted to 10%.
In the case of `COc1cc(/C=N/NC(=O)c2cc(-c3ccc(OC)c(OC)c3)n[nH]2)ccc1O`, the inhibition came out at 10%.
For `O=C(NCC(O)CO)c1ccc2c(c1)nc(COCc1ccccc1)n2Cc1ccco1` (centres undefined), the inhibition came out at 30%.
As to `O=C(NC(S)Nc1ccc2oc(-c3ccc(-c4ccccc4)cc3)nc2c1)c1ccc([N+](=O)[O-])cc1` (centres undefined), the inhibition turned out to be 10%.
Under `O=C(NCC(O)CO)c1ccc2c(c1)nc(CN1CCC(N3CCCC3)CC1)n2CCc1ccccc1` (centres undefined) stands 30%; under `CC(CNC(=O)c1cc(-c2ccccc2)nc2ccccc12)C(=O)NCCNc1ccccc1` (centres undefined), 10%.
With `CCOc1cc(/C=C2/NC(=O)N(Cc3cccc(F)c3)C2=O)cc(Cl)c1OCC`, the inhibition was determined as 10%.
Consider `COc1ccc(CCNC(=O)c2ccc3c(c2)nc(-c2cc(OC)c(OC)c(OC)c2)n3CCc2ccc(OC)c(OC)c2)cc1OC`, for which the inhibition turned out to be 30%.
With `CCOc1cc(/C=C2/S/C(=N/c3ccccc3)N(c3ccccc3)C2=O)ccc1OCc1ccccc1` the figure was 10%.
As for `CCOC(=O)C(=O)NCC1CCC(c2cc3n(n2)CCN3S(=O)(=O)c2cccc(Cl)c2)CC1` (centres undefined), the inhibition was 20%.
Under `CCN(CCCCOC(=O)c1ccc(OC)c(OC)c1)C(C)Cc1ccc(OC)cc1` (centres undefined) stands 10%.
With `O=C(Cn1c(=O)sc2ccccc21)OCc1cccc(Oc2ccccc2)c1` the figure was 0%; with `COc1cccc(Cc2nc3cc(C(=O)NCC(O)CO)ccc3n2CCc2ccccc2F)c1` (centres undefined), 10%; with `CCCCCCOC(=O)Oc1ccc(/C=N/c2ccc(OCC)cc2)cc1`, 0%.
On to `C#CCN1C(=O)S/C(=C/c2ccc(OCc3ccc4ccccc4c3)c(OCC)c2)C1=O`, for which the inhibition turned out to be 0%.
Take `COc1cccc(/C=C2/NC(=O)N(c3cccc(Cl)c3)C2=O)c1OCc1cccc(C(=O)O)c1`: the inhibition was 30%.
Under `O=C(O)c1cccc(/N=C2\S/C(=C\c3ccc(-c4cccc(Cl)c4)o3)C(=O)N2Cc2ccccc2)c1` stands 0%; under `COc1cc(/C=c2/sc3n(c2=O)NC2(c4ccccc4)N(C)C(=O)N(C)C2(c2ccccc2)N=3)ccc1O` (centres undefined), 20%; under `O=C(NCc1ccc(NC(=O)c2cn(Cc3ccccc3)c3ccccc23)cc1)c1cnc2cc(C(F)(F)F)ccc2c1O`, 0%.
Under `COc1cc(CCNC(=O)c2ccc3c(c2)nc(-c2cc(OC)c(OC)c(OC)c2)n3CCc2ccc(OC)c(OC)c2)cc(OC)c1` stands 30%; under `COc1cccc(CCNC(=O)c2ccc3c(c2)nc(-c2cc(OC)cc(OC)c2)n3CCc2ccc(OC)c(OC)c2)c1`, 20%; under `COc1ccc(-c2cc(C(=O)NC(C(=O)NCCCCCCO)C(C)C)c3ccccc3n2)cc1C` (centres undefined), 10%.
With `COc1ccc(C2=NN(C(=O)CSc3nnc(CNC(=O)c4ccco4)n3-c3cc(C)ccc3C)C(c3ccc(OC)cc3)C2)cc1` (centres undefined) the figure was 30%.
As to `N#CC1=C(SCC(=O)Nc2ccc(Br)cc2)NC(=O)CC1c1cccc(O)c1` (centres undefined), the inhibition came to 30%.
With `COc1ccc(-c2cc(C(=O)NC(C)(C)C(=O)NCCN(C(C)C)C(C)C)c3ccccc3n2)cc1` the figure was 0%; with `CCCCn1c(CN2CC(C)CC(C)C2)nc2cc(C(=O)NCC(O)CO)ccc21` (centres undefined), 0%; with `COc1cc(C2CC(=O)NC(SCc3ccccc3)=C2C#N)ccc1O` (centres undefined), 30%.
With `N#CC1=C(SCC(=O)Nc2ccc(Br)cc2)NC(=O)CC1c1ccc(O)cc1` (centres undefined), the inhibition was 10%.
With `CCCCCCCCCCCCCCCCS(=O)(=O)c1ccc(S(=O)(=O)N/N=c2\sc3ccc(S(=O)(=O)O)cc3n2C)cc1C(=O)O` the figure was 20%; with `O=C(O)CN1C(=O)/C(=C\c2ccc(OCc3cccc4ccccc34)cc2)SC1=S`, 30%; with `COc1cc(C(=O)NCCNc2nc3cc4c(cc3cc2C#N)OCO4)cc(OC)c1OC`, 10%.
With `CC(CNC(=O)CCCn1ncn2c(cc3occc32)c1=O)c1ccccc1` (centres undefined), the inhibition is 10%.
For the compound `COc1cc(/C=N/NC(=O)c2cc(-c3ccc4ccccc4c3)n[nH]2)ccc1O`, the inhibition was found to be 10%.
`CC(C)C(=O)NC(Cc1ccc(OCc2ccccc2)cc1)C(=O)NCCCN(C)c1ccccc1` (centres undefined): the inhibition was determined as 30%.
With `COc1cc(/C=C2/SC(=S)N(C3CCCCC3)C2=O)ccc1OCc1ccccc1Cl` the figure was 0%.
With `COc1ccc(CNC(=O)C(C)(C)NC(=O)c2cc(-c3ccoc3)nc3ccccc23)c(OC)c1` the figure was 10%.
For `CC(C)(C)c1cc(/C=C/C(=O)Nc2ccc(CNC(=O)C(C#N)=C3CCCCC3)cc2)cc(C(C)(C)C)c1O`, the inhibition stood at 20%.
Under `COc1cc(C2C(C#N)=C(SCC(=O)Nc3cccc4ccccc34)NC3=C2C(=O)CCC3)ccc1O` (centres undefined) stands 30%.
With `COc1ccc(CCn2c(-c3cc(OC)c(OC)c(OC)c3)nc3cc(C(=O)NCCc4ccccc4)ccc32)cc1OC` the figure was 30%; with `CC(C)c1ccc(OCC(=O)N2CCC(CCCC3CCN(c4ccc(C(=O)N5CCCC5C(N)=O)cn4)CC3)CC2)cc1` (centres undefined), 0%; with `COc1cc(CCNC(=O)c2ccc3c(c2)nc(-c2cc(OC)cc(OC)c2)n3CCc2ccc(OC)c(OC)c2)cc(OC)c1`, 30%.
Under `COc1ccc(-c2cc(C(=O)NCC(C)C(=O)NCCNc3ccccc3)c3ccccc3n2)cc1` (centres undefined) stands 10%; under `COc1cc(/C=N/NC(=O)c2ccc(CN3C(=O)c4cccc5cccc3c45)cc2)cc(Br)c1O`, 10%.
